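Five compound concentrations were applied to cells in 96-well plates for 48 hours; endpoints were derived by simple linear interpolation of the resulting dose-response curve. GI50 is the concentration that inhibits growth by half.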 The source made the active and inactive calls. Rule as the data show it: active = GI50 up to about 1.1 µM and inactive = higher.
Experiments:
Assay in all cases: NCI tumour cell line growth inhibition, 48 h
[1] = system: 786-0
[2] = system: A498
[3] = system: A549
[4] = system: ACHN
[5] = system: CAKI-1
[6] = system: CCRF-CEM
[7] = system: COLO 205
[8] = system: DLD-1
[9] = system: DMS-114
[10] = system: DMS-273
[11] = system: HCC 2998
[12] = system: HCT-116
[13] = system: HCT-15
[14] = system: HL-60
[15] = system: HOP-18
[16] = system: HOP-62
[17] = system: HOP-92
[18] = system: HT-29
[19] = system: IGROV-1
[20] = system: K562
[21] = system: KM-20L2
[22] = system: KM12
[23] = system: LOX IMVI
[24] = system: LXFL 529
[25] = system: M14
[26] = system: M19-MEL
[27] = system: MOLT-4
[28] = system: Malme-3M
[29] = system: NCI-H23
[30] = system: NCI-H460
[31] = system: NCI-H522
[32] = system: OVCAR-3
[33] = system: OVCAR-5
[34] = system: OVCAR-8
[35] = system: RXF 631
[36] = system: SF-268
[37] = system: SF-295
[38] = system: SF-539
[39] = system: SK-MEL-28
[40] = system: SK-MEL-2
[41] = system: SK-MEL-5
[42] = system: SK-OV-3
[43] = system: SN12C
[44] = system: SNB-19
[45] = system: SNB-75
[46] = system: SNB-78
[47] = system: SR
[48] = system: SW-620
[49] = system: TK-10
[50] = system: U-251
[51] = system: UACC-257
[52] = system: UACC-62
[53] = system: UO-31
[54] = system: XF498
[55] = system: EKVX
[56] = system: NCI-H226
[57] = system: OVCAR-4
[58] = system: RPMI-8226
[59] = system: RXF 393

## CCOC(=O)NC(=O)c1cn(CC(=O)NCC(=O)NCC(=O)NCCCN2CCN(CCCNC(=O)CNC(=O)CNC(=O)Cn3cc(C(=O)NC(=O)OCC)c(=O)[nH]c3=O)CC2)c(=O)[nH]c1=O
[1]
  GI50: > 100 µM (inactive)
[2]
  GI50: > 100 µM (inactive)
[3]
  GI50: > 100 µM (inactive)
[4]
  GI50: > 100 µM (inactive)
[5]
  GI50: > 100 µM (inactive)
[6]
  GI50: > 100 µM (inactive)
[7]
  GI50: > 100 µM (inactive)
[8]
  GI50: > 100 µM (inactive)
[9]
  GI50: > 100 µM (inactive)
[10]
  GI50: > 100 µM (inactive)
[11]
  GI50: > 100 µM (inactive)
[12]
  GI50: > 100 µM (inactive)
[13]
  GI50: > 100 µM
[14]
  GI50: > 100 µM (inactive)
[15]
  GI50: > 100 µM (inactive)
[16]
  GI50: > 100 µM (inactive)
[17]
  GI50: > 100 µM (inactive)
[18]
  GI50: > 100 µM (inactive)
[19]
  GI50: > 100 µM (inactive)
[20]
  GI50: > 100 µM (inactive)
[21]
  GI50: > 100 µM (inactive)
[22]
  GI50: > 100 µM (inactive)
[23]
  GI50: > 100 µM (inactive)
[24]
  GI50: > 100 µM (inactive)
[25]
  GI50: > 100 µM (inactive)
[26]
  GI50: > 100 µM (inactive)
[27]
  GI50: > 100 µM (inactive)
[28]
  GI50: > 100 µM (inactive)
[29]
  GI50: > 100 µM (inactive)
[30]
  GI50: > 100 µM (inactive)
[31]
  GI50: > 100 µM (inactive)
[32]
  GI50: > 100 µM (inactive)
[33]
  GI50: > 100 µM (inactive)
[34]
  GI50: > 100 µM (inactive)
[35]
  GI50: > 100 µM (inactive)
[36]
  GI50: > 100 µM (inactive)
[37]
  GI50: > 100 µM (inactive)
[38]
  GI50: > 100 µM (inactive)
[39]
  GI50: > 100 µM (inactive)
[40]
  GI50: > 100 µM (inactive)
[41]
  GI50: > 100 µM (inactive)
[42]
  GI50: > 100 µM (inactive)
[43]
  GI50: > 100 µM (inactive)
[44]
  GI50: > 100 µM (inactive)
[45]
  GI50: > 100 µM (inactive)
[46]
  GI50: > 100 µM (inactive)
[47]
  GI50: > 100 µM (inactive)
[48]
  GI50: > 100 µM (inactive)
[49]
  GI50: > 100 µM (inactive)
[50]
  GI50: > 100 µM (inactive)
[51]
  GI50: > 100 µM (inactive)
[52]
  GI50: > 100 µM (inactive)
[53]
  GI50: > 100 µM (inactive)
[54]
  GI50: > 100 µM (inactive)

## NN/C(Cc1ccccc1)=N/NC(N)=S
[1]
  GI50: > 100 µM (inactive)
[2]
  GI50: > 100 µM (inactive)
[3]
  GI50: > 100 µM (inactive)
[4]
  GI50: 62.5 µM (inactive)
[6]
  GI50: 54.1 µM (inactive)
[7]
  GI50: > 100 µM (inactive)
[8]
  GI50: > 100 µM (inactive)
[9]
  GI50: 41.3 µM (inactive)
[10]
  GI50: > 100 µM (inactive)
[55]
  GI50: 97.3 µM (inactive)
[11]
  GI50: > 100 µM (inactive)
[13]
  GI50: 72.6 µM
[14]
  GI50: 63 µM (inactive)
[15]
  GI50: 24 µM (inactive)
[16]
  GI50: > 100 µM (inactive)
[17]
  GI50: > 100 µM (inactive)
[18]
  GI50: > 100 µM (inactive)
[19]
  GI50: > 100 µM (inactive)
[20]
  GI50: > 100 µM (inactive)
[21]
  GI50: > 100 µM (inactive)
[22]
  GI50: 96.4 µM (inactive)
[23]
  GI50: 82.6 µM (inactive)
[24]
  GI50: > 100 µM (inactive)
[25]
  GI50: > 100 µM (inactive)
[26]
  GI50: > 100 µM (inactive)
[27]
  GI50: 49.9 µM (inactive)
[28]
  GI50: > 100 µM (inactive)
[56]
  GI50: > 100 µM (inactive)
[29]
  GI50: > 10 µM (inactive)
[30]
  GI50: > 100 µM (inactive)
[31]
  GI50: 14.6 µM (inactive)
[57]
  GI50: > 100 µM (inactive)
[33]
  GI50: > 100 µM (inactive)
[34]
  GI50: > 100 µM (inactive)
[58]
  GI50: > 100 µM (inactive)
[59]
  GI50: > 100 µM (inactive)
[35]
  GI50: > 100 µM (inactive)
[36]
  GI50: > 100 µM (inactive)
[37]
  GI50: > 100 µM (inactive)
[38]
  GI50: > 100 µM (inactive)
[39]
  GI50: > 100 µM (inactive)
[40]
  GI50: > 100 µM (inactive)
[42]
  GI50: > 100 µM (inactive)
[45]
  GI50: > 100 µM (inactive)
[48]
  GI50: > 100 µM (inactive)
[49]
  GI50: > 100 µM (inactive)
[50]
  GI50: > 100 µM (inactive)
[51]
  GI50: > 100 µM (inactive)
[52]
  GI50: > 100 µM (inactive)
[53]
  GI50: > 100 µM (inactive)
[54]
  GI50: > 100 µM (inactive)

## OCC(O)COc1ccc(Br)cc1 (stereo not given)
[2]
  GI50: > 100 µM (inactive)
[3]
  GI50: 50.7 µM (inactive)
[4]
  GI50: > 100 µM (inactive)
[5]
  GI50: > 100 µM (inactive)
[6]
  GI50: > 100 µM (inactive)
[7]
  GI50: > 100 µM (inactive)
[8]
  GI50: > 100 µM (inactive)
[9]
  GI50: > 100 µM (inactive)
[10]
  GI50: > 100 µM (inactive)
[55]
  GI50: > 100 µM (inactive)
[11]
  GI50: > 100 µM (inactive)
[12]
  GI50: > 100 µM (inactive)
[13]
  GI50: > 100 µM
[14]
  GI50: > 100 µM (inactive)
[15]
  GI50: > 100 µM (inactive)
[16]
  GI50: > 100 µM (inactive)
[17]
  GI50: > 100 µM (inactive)
[18]
  GI50: > 100 µM (inactive)
[19]
  GI50: > 100 µM (inactive)
[20]
  GI50: > 100 µM (inactive)
[21]
  GI50: > 100 µM (inactive)
[22]
  GI50: > 100 µM (inactive)
[23]
  GI50: > 100 µM (inactive)
[24]
  GI50: > 100 µM (inactive)
[25]
  GI50: > 100 µM (inactive)
[28]
  GI50: > 100 µM (inactive)
[56]
  GI50: > 100 µM (inactive)
[29]
  GI50: > 100 µM (inactive)
[30]
  GI50: > 10 µM (inactive)
[31]
  GI50: > 100 µM (inactive)
[32]
  GI50: > 100 µM (inactive)
[57]
  GI50: > 100 µM (inactive)
[33]
  GI50: > 100 µM (inactive)
[34]
  GI50: > 100 µM (inactive)
[58]
  GI50: > 100 µM (inactive)
[59]
  GI50: > 100 µM (inactive)
[35]
  GI50: > 100 µM (inactive)
[36]
  GI50: > 100 µM (inactive)
[37]
  GI50: > 100 µM (inactive)
[38]
  GI50: > 100 µM (inactive)
[39]
  GI50: > 100 µM (inactive)
[40]
  GI50: > 100 µM (inactive)
[41]
  GI50: > 100 µM (inactive)
[42]
  GI50: > 100 µM (inactive)
[43]
  GI50: 60.3 µM (inactive)
[44]
  GI50: > 100 µM (inactive)
[45]
  GI50: > 100 µM (inactive)
[47]
  GI50: 0.0166 µM (active)
[48]
  GI50: > 100 µM (inactive)
[49]
  GI50: > 100 µM (inactive)
[50]
  GI50: > 100 µM (inactive)
[51]
  GI50: > 100 µM (inactive)
[52]
  GI50: > 100 µM (inactive)
[53]
  GI50: > 100 µM (inactive)
[54]
  GI50: > 100 µM (inactive)

— ChEMBL document CHEMBL1201862, “PubChem BioAssay data set” (2004)
